In US12064482B2, “Triplet-triplet energy transfer with light excitation at long wavelengths and methods thereof” (THE UNIVERSITY OF HONG KONG, priority 2018, dated 2024):

Assays:
[1] = Photocleavage of BODIPY-CAB and photorelease of CAB in solution, determined by HPLC; type: physicochemical
Source text: FIG. 4. HPLC spectra of CAB (10^−4 M), PtTPBP (10^−5 M), BODIPY-CAB (10^−4 M), BODIPY-CAB (10^−4 M) with 530 nm irradiation (44 mW/cm^2) for 15 s under N2 atmosphere, the mixture of BODIPY-CAB (10^−4 M) and PtTPBP (10^−5 M) with 625 nm irradiation (44 mW/cm^2) for 15 s under N2 atmosphere, the mixture of BODIPY-CAB (10^−4 M) and PtTPBP (10^−5 M) without irradiation under N2 atmosphere, and BODIPY-CAB (10^−4 M) with 625 nm irradiation (44 mW/cm^2) for 15 s under N2 atmosphere. The detection wavelength was 260 nm. A small amount of toluene, whose peak was located at ˜8.7 min, was used to increase the solubility of PtTPBP. The yellow arrows indicate the signal of CAB; the red arrows indicate the signal of BODIPY-CAB; and the green arrows indicate the signal of PtTPBP.
FIG. 5. Photocleavage rate of the prodrug (BODIPY-CAB), as determined by HPLC (detected at 540 nm), after irradiation with 625 nm LED light at 44 mW/cm^2. The mixed solution of BODIPY-CAB (10^−4 M) and PtTPBP (10^−5 M, […] or 0 M) was protected under nitrogen (N2) or exposed in the air, and then irradiated for different time periods in the mixed solvents of dichloromethane (DCM) and methanol (1:9, v/v). The solution (50 μL) was then analyzed by HPLC to measure the concentration of BODIPY-CAB. Data are means±SD, n=3.
FIG. 6. Photorelease of the free drug (CAB), as determined by HPLC (detected at 260 nm), after irradiation with 625 nm LED light at 44 mW/cm^2. The mixed solution of BODIPY-CAB (10^−4 M) and PtTPBP ([…], 5×10^−6 M, 10^−6 M or 0 M) was protected under nitrogen (N2) or exposed in the air, and then irradiated for different time periods in the mixed solvents of dichloromethane (DCM) and methanol (1:9, v/v). The solution (50 μL) was then analyzed by HPLC to measure the concentration of CAB. Data are means f SD, n=3.
The intermediates and the final product were characterized by proton nuclear magnetic resonance (^1H NMR) spectra (FIG. 12-FIG. 15). The absorption and emission peaks of BODIPY-CAB were located at the wavelength of 543 nm and 567 nm, respectively (FIG. 3). To confirm whether the BODIPY prodrug could be sensitized by PtTPBP and could further be cleaved to release the drug, high performance liquid chromatography (HPLC) was utilized to monitor the generation of CAB. […] After addition of photosensitizer PtTPBP, the mixture solution of PtTPBP and BODIPY-CAB was irradiated with 625 nm light for 15 sec.
Furthermore, the photocleavage of BODIPY-CAB was investigated with different ratios of BODIPY-CAB and PtTPBP upon 625 nm light irradiation. […] When the concentration of photosensitizer was decreased, the photocleavage of BODIPY-CAB slowed down. […] Moreover, as O2 can quench the triplet excited state of PtTPBP, the prodrug cannot be cleaved efficiently in the presence of O2.

[2] = literature ref. [10]; cited from earlier work

CC1=C(I)C(C)=[N+]2C1=C(COC(=O)CCCc1ccc(N(CCCl)CCCl)cc1)c1c(C)c(I)c(C)n1[B-]2(C)C [BODIPY-CAB]
generation of CAB (HPLC) ([1]; 530 nm (44 mW/cm^2), 15 s, no photosensitizer, N2): leads to the release of CAB | generation of CAB (HPLC) ([1]; 625 nm (44 mW/cm^2), 15 s, with PtTPBP, N2): new peak located at ˜11.2 min was appeared | generation of CAB (HPLC) ([1]; 625 nm, 15 s, in the absence of PtTPBP, N2): did not generate CAB | rate of photocleavage and photorelease ([1]; 625 nm, with PtTPBP, in the air atmosphere (O2)): dramatically deceased rate of photocleavage and photorelease | prodrug remained in the solution ([1]; BODIPY-CAB:PtTPBP 100:1, 625 nm LED 44 mW/cm^2, 30 s, N2): 59.6% | photocleavage of the prodrug ([1]; BODIPY-CAB:PtTPBP 100:10, 625 nm LED 44 mW/cm^2, 15 s, N2): almost cleaved completely | free drug CAB released ([1]; BODIPY-CAB:PtTPBP 100:10, 625 nm LED 44 mW/cm^2, 15 s, N2, DCM/methanol 1:9): 41.7% | generation of CAB (HPLC) ([1]; mixture with PtTPBP not irradiated, N2): did not generate CAB

[Pt+2].c1ccc(-c2c3nc(c(-c4ccccc4)c4[n-]c(c(-c5ccccc5)c5nc(c(-c6ccccc6)c6[n-]c2c2ccccc62)-c2ccccc2-5)c2ccccc42)-c2ccccc2-3)cc1 [PtTPBP, platinum (II) tetraphenyltetrabenzoporphyrin]
cytotoxicity [2]: minimal
